According to patent publication US4021544A, “Complement inhibitors” (American Cyanamid Company, priority 1976, dated 1977):
Values joined by “and” are separate entries in the source; they are usually repeats but may differ in a detail not shown here. Identical values can stand only once. Counter-ions that a name gives are not always drawn.

Key:
activated human C1 = activated human C1 (Homo sapiens, UniProt P09871); assay: Test, Code 026 (C1 inhibitor); assay type: biochemical; details: for 026 Wells: Table I, serial two-fold dilution assay, higher well number indicates higher activity; for LOGARITHMIC DIFFERENCE EXPRESSED AS WELLS / COMPLEMENT INHIBITING ACTIVITY (WELLS) CODE 026 / INTRINSIC THERAPEUTICAL INDEX: Table II; for LOGARITHMIC DIFFERENCE EXPRESSED AS WELLS: Code 026 wells minus AC wells (base 2); for COMPLEMENT INHIBITING ACTIVITY (WELLS) CODE 026: highest active serial dilution; for INTRINSIC THERAPEUTICAL INDEX: antilogarithm (base 2) of difference between Code 026 wells and AC wells
Description: (§1) An active inhibitor protects C2 from C1 and C4; (ii) Test, Code 035 (C3- C9 inhibitor) - This test determines the ability of the late components of human complement (C3-C9) to lyse EAC 142 in the presence of appropriate dilutions of the test compound. An active inhibitor protects EAC 142 from lysis by human C3-C9; (iii) Test, Code 036 (C-Shunt inhibitor) - In this test human erythrocytes rendered fragile are lysed in autologous serum via the shunt pathway activated by cobra venom factor in the presence of appropriate dilutions of the test compound. Inhibition of the shunt pathway results in failure of lysis; (iv) Forssman Vasculitis Test - Here, the well known complement dependent lesion, Forssman vasculitis, is produced in guinea pigs by intradermal injection of rabbit anti-forssman antiserum. The lesion is measured in terms of diameter, edema and hemorrhage and the extent to which a combined index of these is inhibited by prior intraperitoneal injection of the test compound at 200 mg/kg in then reported, unless otherwise stated; (v) Forssman Shock Test -- Lethal shock is produced in guinea pigs by an i.v. injection of anti-Forssman antiserum and the harmonic mean death time of treated guinea pigs is compared with that of simultaneous controls; (vi) Complement Level Reduction Test -- In this test, the above dosed guinea pigs, or others, are bled for serum and the complement level is determined in undiluted serum by the capillary tube method of U.S. Pat. No. 3,876,376 and compared to undosed control guinea pigs; and (vii) Cap 50 Test -- Here, appropriate amounts of the test compound are added to a pool of guinea pig serum in vitro, after which the undiluted serum capillary tube assay referred to above is run. The concentration of compound inhibiting 50% is reported.

Citrated sheep plasma = assay: In vitro anti-coagulant activity (AC) test; details: for A.C. Wells: Table I, clot inhibition, recalcified citrated sheep plasma, serial two-fold dilutions; for ANTI-COAGULANT ACTIVITY (WELLS) AC: Table II, highest active serial dilution
Procedure: The sheep RBC'S, kept in suspension throughout the clotting incubation time, become enmeshed in the fibrin matrix if a clot forms. Upon centrifugation of the plate untrapped RBC's form buttons, the sizes of which correspond to the degree of clot inhibition; this providing a measure of anti-coagulant activity (AC).

[1] = tested on: shunt pathway activated by cobra venom factor; assay: Test, Code 036 (C-Shunt inhibitor); assay type: cell-based; details: Table I, lysis of fragile human erythrocytes in autologous serum, serial two-fold dilution assay, higher well number indicates higher activity
Description: as §1

[2] = tested on: late components of human complement (C3-C9); assay: Test, Code 035 (C3-C9 inhibitor); assay type: biochemical; details: Table I; lysis of EAC 142; serial two-fold dilution assay, higher well number indicates higher activity
Description: as §1

| Compound | 026 Wells (activated human C1) | LOGARITHMIC DIFFERENCE EXPRESSED AS WELLS (activated human C1) | COMPLEMENT INHIBITING ACTIVITY (WELLS) CODE 026 (activated human C1) | A.C. Wells (Citrated sheep plasma) | ANTI-COAGULANT ACTIVITY (WELLS) AC (Citrated sheep plasma) | 036 Wells [1] | INTRINSIC THERAPEUTICAL INDEX (activated human C1) | 035 Wells [2] | COMPLEMENT INHIBITING ACTIVITY (WELLS) CODE 026 (activated human C1; Sodium Salt) | A.C. Wells (Citrated sheep plasma; Sodium Salt) | ANTI-COAGULANT ACTIVITY (WELLS) AC (Citrated sheep plasma; Sodium Salt) | 036 Wells ([1]; Sodium Salt) |
| --- | --- | --- | --- | --- | --- | --- | --- | --- | --- | --- | --- | --- |
| O=S(=O)(O)OC[C@H]1O[C@H](O[C@H]2[C@H](OS(=O)(=O)O)[C@@H](OS(=O)(=O)O)[C@@H](O[C@H]3[C@H](OS(=O)(=O)O)[C@@H](OS(=O)(=O)O)[C@@H](O[C@H]4[C@H](OS(=O)(=O)O)[C@@H](OS(=O)(=O)O)C(OS(=O)(=O)O)O[C@@H]4COS(=O)(=O)O)O[C@@H]3COS(=O)(=O)O)O[C@@H]2COS(=O)(=O)O)[C@H](OS(=O)(=O)O)[C@@H](OS(=O)(=O)O)[C@@H]1O[C@H]1O[C@H](COS(=O)(=O)O)[C@@H](O[C@H]2O[C@H](COS(=O)(=O)O)[C@@H](O[C@H]3O[C@H](COS(=O)(=O)O)[C@@H](OS(=O)(=O)O)[C@H](OS(=O)(=O)O)[C@H]3OS(=O)(=O)O)[C@H](OS(=O)(=O)O)[C@H]2OS(=O)(=O)O)[C@H](OS(=O)(=O)O)[C@H]1OS(=O)(=O)O (stereo partly drawn) [Maltoheptaose Poly(H-)sulfate Trimethylamine Salt] | +9 Wells | +5 WELLS | +9 WELLS | +4 Wells | +4 WELLS | 5 Wells | – | – | – | – | – | – |
| O=S(=O)(O)OC[C@H]1O[C@H](O[C@H]2[C@H](OS(=O)(=O)O)[C@@H](OS(=O)(=O)O)C(OS(=O)(=O)O)O[C@@H]2COS(=O)(=O)O)[C@H](OS(=O)(=O)O)[C@@H](OS(=O)(=O)O)[C@@H]1OS(=O)(=O)O (stereo partly drawn) [Maltose Poly(H-)Sulfate Trimethylamine Salt] | – | +10 WELLS | +8 WELLS | -2 Wells | -2 WELLS | Neg. | 1024 | Neg. | – | – | – | – |
| Maltotriose Poly(H-)sulfate Sodium Salt | +9 Wells | +10 WELLS | +9 WELLS | -1 Wells | -1 WELLS | Neg. | 1024 | Neg. | – | – | – | – |
| O=S(=O)(O)OC[C@H]1O[C@H](O[C@H]2[C@H](OS(=O)(=O)O)[C@@H](OS(=O)(=O)O)C(OS(=O)(=O)O)O[C@@H]2COS(=O)(=O)O)[C@H](OS(=O)(=O)O)[C@@H](OS(=O)(=O)O)[C@@H]1OS(=O)(=O)O (stereo partly drawn) [Maltose Poly(H--) sulfate sodium salt, Maltose Poly (H-)Sulfate Sodium Salt] | – | – | – | – | – | – | – | – | +12 WELLS | +2 Wells | +2 WELLS | – |
| Maltotriose Poly(H-)sulfate Trimethylamine Salt | +7 Wells | +8 WELLS | +7 WELLS | -1 Wells | -1 WELLS | Neg. | 256 | Neg. | – | – | – | – |
| O=S(=O)(O)OC[C@H]1O[C@H](O[C@H]2[C@H](OS(=O)(=O)O)[C@@H](OS(=O)(=O)O)[C@@H](O[C@H]3[C@H](OS(=O)(=O)O)[C@@H](OS(=O)(=O)O)[C@@H](O[C@H]4[C@H](OS(=O)(=O)O)[C@@H](OS(=O)(=O)O)C(OS(=O)(=O)O)O[C@@H]4COS(=O)(=O)O)O[C@@H]3COS(=O)(=O)O)O[C@@H]2COS(=O)(=O)O)[C@H](OS(=O)(=O)O)[C@@H](OS(=O)(=O)O)[C@@H]1O[C@H]1O[C@H](COS(=O)(=O)O)[C@@H](O[C@H]2O[C@H](COS(=O)(=O)O)[C@@H](O[C@H]3O[C@H](COS(=O)(=O)O)[C@@H](OS(=O)(=O)O)[C@H](OS(=O)(=O)O)[C@H]3OS(=O)(=O)O)[C@H](OS(=O)(=O)O)[C@H]2OS(=O)(=O)O)[C@H](OS(=O)(=O)O)[C@H]1OS(=O)(=O)O (stereo partly drawn) [Maltoheptaose Poly(H-)sulfate Sodium Salt] | – | – | – | – | – | – | – | – | – | – | – | 6 Wells and 5 Wells |
